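Dose response: 5 concentrations. Exposure: 48 h. Format: 96-well plates. Endpoint: linear interpolation; highest concentration if not reached. TGI marks complete inhibition of growth.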
Assays:
Experiment in all cases: NCI-60 cell line screen, 48 h
[1] = tested on: HCT-116 colon
[2] = tested on: SK-MEL-28 melanoma
[3] = tested on: SN12C renal
[4] = tested on: SF-268 CNS
[5] = tested on: UACC-62 melanoma
[6] = tested on: T-47D breast
[7] = tested on: RPMI-8226 leukemia
[8] = tested on: OVCAR-3 ovarian
[9] = tested on: ACHN renal
[10] = tested on: PC-3 prostate
[11] = tested on: SF-295 CNS
[12] = tested on: HCC-2998 colon
[13] = tested on: SF-539 CNS
[14] = tested on: COLO 205 colon
[15] = tested on: TK-10 renal
[16] = tested on: NCI-H23 lung
[17] = tested on: SR leukemia
[18] = tested on: OVCAR-5 ovarian
[19] = tested on: CCRF-CEM leukemia
[20] = tested on: HCT-15 colon
[21] = tested on: HOP-62 NSCLC
[22] = tested on: M14 melanoma
[23] = tested on: OVCAR-8 ovarian
[24] = tested on: UACC-257 melanoma
[25] = tested on: KM12 colon
[26] = tested on: 786-0 renal
[27] = tested on: NCI-H460 lung
[28] = tested on: SW-620 colon
[29] = tested on: SK-MEL-2 melanoma
[30] = tested on: NCI/ADR-RES ovarian
[31] = tested on: UO-31 renal
[32] = tested on: A549 NSCLC
[33] = tested on: SK-MEL-5 melanoma
[34] = tested on: MDA-N
[35] = tested on: IGROV1 ovarian
[36] = tested on: LOX IMVI melanoma
[37] = tested on: MCF7 breast
[38] = tested on: SNB-19 CNS
[39] = tested on: MDA-MB-435
[40] = tested on: DU-145 prostate
[41] = tested on: NCI-H522 lung
[42] = tested on: CAKI-1 renal
[43] = tested on: EKVX NSCLC
[44] = tested on: HS 578T breast
[45] = tested on: SNB-75 CNS
[46] = tested on: RXF 393 renal
[47] = tested on: HL-60(TB) leukemia
[48] = tested on: A498 renal
[49] = tested on: MOLT-4 leukemia
[50] = tested on: K-562 leukemia
[51] = tested on: HOP-92 NSCLC
[52] = tested on: MALME-3M melanoma
[53] = tested on: U251 CNS
[54] = tested on: MDA-MB-231 breast
[55] = tested on: SK-OV-3 ovarian
[56] = tested on: HT29 colon
[57] = tested on: NCI-H226 lung
[58] = tested on: BT-549 breast
[59] = tested on: OVCAR-4 ovarian

Compound: NC(CC(=O)OCc1ccccc1)C(=O)OCc1ccccc1 (stereo not drawn)
- TGI [1]: > 100 µM
- TGI [2]: > 100 µM
- TGI [3]: > 100 µM
- TGI [4]: > 100 µM
- TGI [5]: > 100 µM
- TGI [6]: > 100 µM
- TGI [7]: > 100 µM
- TGI [8]: > 100 µM
- TGI [9]: > 100 µM
- TGI [10]: > 100 µM
- TGI [11]: > 100 µM
- TGI [12]: 89.1 µM
- TGI [13]: > 100 µM
- TGI [14]: > 100 µM
- TGI [15]: > 100 µM
- TGI [16]: > 100 µM
- TGI [17]: > 100 µM
- TGI [18]: > 100 µM
- TGI [19]: > 100 µM
- TGI [20]: > 100 µM
- TGI [21]: > 100 µM
- TGI [22]: > 100 µM
- TGI [23]: > 100 µM
- TGI [24]: > 100 µM
- TGI [25]: > 100 µM
- TGI [26]: > 100 µM
- TGI [27]: > 100 µM
- TGI [28]: > 100 µM
- TGI [29]: > 100 µM
- TGI [30]: > 100 µM
- TGI [31]: > 100 µM
- TGI [32]: > 100 µM
- TGI [33]: > 100 µM
- TGI [34]: > 100 µM
- TGI [35]: > 100 µM
- TGI [36]: > 100 µM
- TGI [37]: > 100 µM
- TGI [38]: > 100 µM
- TGI [39]: > 100 µM
- TGI [40]: > 100 µM
- TGI [41]: > 100 µM
- TGI [42]: > 100 µM
- TGI [43]: > 100 µM
- TGI [44]: > 100 µM

Compound: COc1cccc(Nc2nc(C)c([N+](=O)[O-])c(Nc3cccc(OC)c3)n2)c1
- TGI [1]: > 100 µM
- TGI [2]: > 100 µM
- TGI [45]: 4.73 µM
- TGI [3]: > 100 µM
- TGI [4]: > 100 µM
- TGI [5]: 38.8 µM
- TGI [6]: 6.9 µM
- TGI [7]: 45.9 µM
- TGI [8]: 57.2 µM
- TGI [9]: > 100 µM
- TGI [46]: 35.2 µM
- TGI [47]: > 100 µM
- TGI [10]: > 100 µM
- TGI [48]: 50.4 µM
- TGI [11]: 47.9 µM
- TGI [49]: 30.2 µM
- TGI [13]: > 100 µM
- TGI [14]: 44.9 µM
- TGI [15]: 95.7 µM
- TGI [16]: > 100 µM
- TGI [17]: > 100 µM
- TGI [18]: > 100 µM
- TGI [20]: > 100 µM
- TGI [21]: 46.2 µM
- TGI [22]: > 100 µM
- TGI [50]: > 100 µM
- TGI [23]: > 100 µM
- TGI [51]: > 100 µM
- TGI [24]: 46.7 µM
- TGI [52]: > 100 µM
- TGI [26]: > 100 µM
- TGI [27]: 19.8 µM
- TGI [28]: > 100 µM
- TGI [29]: 96.5 µM
- TGI [30]: 14.4 µM
- TGI [31]: > 100 µM
- TGI [32]: > 100 µM
- TGI [33]: 77.2 µM
- TGI [34]: > 100 µM
- TGI [53]: > 100 µM
- TGI [35]: > 100 µM
- TGI [36]: > 100 µM
- TGI [54]: > 100 µM
- TGI [55]: > 100 µM
- TGI [37]: > 100 µM
- TGI [38]: > 100 µM
- TGI [40]: 56.1 µM
- TGI [41]: > 100 µM
- TGI [56]: > 100 µM
- TGI [43]: 78.4 µM
- TGI [57]: > 100 µM
- TGI [58]: 8.14 µM
- TGI [44]: > 100 µM

Compound: CCCCCCCCCCCCCCCCP(=O)(O)OCC(N)C(=O)O (stereo not drawn)
- TGI [1]: 48.9 µM
- TGI [2]: > 100 µM
- TGI [45]: 65.1 µM
- TGI [3]: > 100 µM
- TGI [4]: 74 µM
- TGI [5]: > 100 µM
- TGI [6]: > 100 µM
- TGI [7]: 62.7 µM
- TGI [8]: 79.3 µM
- TGI [9]: 68.8 µM
- TGI [46]: 75.1 µM
- TGI [47]: 39.2 µM
- TGI [10]: 41.5 µM
- TGI [48]: 52.2 µM
- TGI [11]: 44.8 µM
- TGI [49]: 42.4 µM
- TGI [59]: > 100 µM
- TGI [12]: > 100 µM
- TGI [13]: 72.3 µM
- TGI [14]: > 100 µM
- TGI [16]: > 100 µM
- TGI [17]: 91.3 µM
- TGI [18]: 65.1 µM
- TGI [19]: > 100 µM
- TGI [20]: > 100 µM
- TGI [21]: 47.9 µM
- TGI [22]: > 100 µM
- TGI [50]: > 100 µM
- TGI [23]: > 100 µM
- TGI [51]: 48.2 µM
- TGI [24]: > 100 µM
- TGI [25]: 43.7 µM
- TGI [52]: > 100 µM
- TGI [26]: > 100 µM
- TGI [27]: 64.9 µM
- TGI [28]: > 100 µM
- TGI [29]: 78.7 µM
- TGI [30]: > 100 µM
- TGI [31]: 31.7 µM
- TGI [32]: > 100 µM
- TGI [33]: > 100 µM
- TGI [34]: > 100 µM
- TGI [53]: > 100 µM
- TGI [35]: 28.9 µM
- TGI [36]: 40.1 µM
- TGI [54]: 82.7 µM
- TGI [55]: > 100 µM
- TGI [38]: 44.8 µM
- TGI [39]: > 100 µM
- TGI [40]: > 100 µM
- TGI [41]: 42.8 µM
- TGI [42]: 56.2 µM
- TGI [56]: > 100 µM
- TGI [43]: > 100 µM
- TGI [57]: > 100 µM
- TGI [44]: > 100 µM

Compound: N=c1c2ccccc2nc2oc3cc([N+](=O)[O-])ccc3n12
- TGI [1]: > 100 µM
- TGI [2]: > 100 µM
- TGI [45]: 24.9 µM
- TGI [3]: > 100 µM
- TGI [4]: 85.2 µM
- TGI [5]: > 100 µM
- TGI [6]: 20.3 µM
- TGI [7]: > 100 µM
- TGI [8]: 70.8 µM
- TGI [9]: 57.7 µM
- TGI [46]: 32.5 µM
- TGI [10]: > 100 µM
- TGI [11]: 54.4 µM
- TGI [49]: > 100 µM
- TGI [59]: > 100 µM
- TGI [12]: > 100 µM
- TGI [13]: 65.4 µM
- TGI [14]: > 100 µM
- TGI [15]: 36.6 µM
- TGI [16]: 49.5 µM
- TGI [17]: > 100 µM
- TGI [18]: > 100 µM
- TGI [19]: > 100 µM
- TGI [20]: > 100 µM
- TGI [21]: 45.4 µM
- TGI [22]: > 100 µM
- TGI [50]: > 100 µM
- TGI [23]: 51.2 µM
- TGI [24]: > 100 µM
- TGI [25]: > 100 µM
- TGI [52]: > 100 µM
- TGI [26]: 66.3 µM
- TGI [27]: > 100 µM
- TGI [28]: > 100 µM
- TGI [29]: > 100 µM
- TGI [30]: 74 µM
- TGI [31]: 32.3 µM
- TGI [32]: > 100 µM
- TGI [33]: > 100 µM
- TGI [34]: > 100 µM
- TGI [53]: 29.6 µM
- TGI [35]: > 100 µM
- TGI [36]: > 100 µM
- TGI [54]: 60.5 µM
- TGI [55]: 37.1 µM
- TGI [37]: > 100 µM
- TGI [38]: > 100 µM
- TGI [39]: > 100 µM
- TGI [41]: > 100 µM
- TGI [42]: > 100 µM
- TGI [56]: > 100 µM
- TGI [43]: 89 µM
- TGI [57]: 30.3 µM
- TGI [58]: 91.6 µM
- TGI [44]: 50.7 µM

Reference: PubChem BioAssay (NCI)
